The values that follow are results of earlier work, collected in patent US6235494A, “Substrates for assessing mannan-binding protein-associated serine protease activity and methods using the substrates” (The Scripps Research Institute, priority 1999, dated 2001).

Each structure is given as a SMILES string.

Data set [1] concerns alternative pathway.
Data set [2] relates to classical pathway.
Data set [3] has as its system complement activation (C3a and C4a). Particulars: normal individuals.
In data set [4] the test system is alternative pathway. The source holds these as a separate data set.
Data set [5] has as its system kallikrein (plasma and pancreatic).
Data set [6] has as its system classical pathway. The source holds these as a separate data set.

`N=C(N)c1ccccc1` [benzamidine]: the “C4a generated in whole blood” value with C4a (benzamidine added, before EDTA) is “no C4a generated”. In the data set with coagulation pathway, the “block of the coagulation pathway” value was “blocks”. For the same compound, the “block of the alternative pathway” value in the data set on alternative pathway [1] is “blocks”. In the data set on MASP, the “inhibition of MASP activity” value is “does not inhibit MASP activity”. The “block of the classical pathway” value in the data set on classical pathway [2] was “blocks”.

As for `CS(=O)(=O)O.CS(=O)(=O)O.N=C(N)Nc1ccc(C(=O)Oc2ccc3cc(C(=N)N)ccc3c2)cc1` [Futhan, 6-amidino-2-naphthyl p-guanidinobenzoate dimethanesulfonate], in data set [3], the “stabilization of freshly drawn blood samples” value is “effectively stabilizes freshly drawn blood samples”. Moreover, the inhibition of plasmin entry in the data set on plasmin was “inhibits”. The “inhibition of complement-mediated hemolysis by the alternative pathway” value with alternative pathway [4] is listed as “inhibits”. The inhibition of thrombin entry in the data set on thrombin was “inhibits”. For the same compound, in the data set with Factor D, the “complement proteinase target Factor D” value is recorded as “complement proteinase targets”. Also, in the data set on C1s, the “complement proteinase target C1s” value is recorded as “complement proteinase targets”. Also, the “complement proteinase target C1r” value in the data set with C1r is recorded as “complement proteinase targets”. For the same compound, the “complement proteinase target Factor B” value in the data set with Factor B was “complement proteinase targets”. In data set [5], the “inhibition of kallikrein (plasma and pancreatic)” value is given as “inhibits”. The “effective toward Factor Xa” value in the data set with Factor Xa is reported as “sub-micromolar level”. In the data set on classical pathway [6], the “inhibition of complement-mediated hemolysis by the classical pathway” value is listed as “inhibits”. Further, the “effective toward Hageman factor” value with Hageman factor is on record as “sub-micromolar level”. Moreover, the “inhibition of MASP activity” value in the data set with MASP is given as “inhibits MASP”. Besides, the MASP activity entry with MASP (in EDTA) was “no MASP activity is observed”.

For the compound `O=C(O)CN(CCN(CC(=O)O)CC(=O)O)CC(=O)O` [EDTA, ethylened laminetetraacetic acid], in the data set with C4a (benzamidine-containing whole blood, EDTA added), the “C4a generated upon addition of EDTA” value is “high levels of C4a are generated”.
